Results as given in EP1458697B1, “BIPHENYLMETHYL-THIAZOLIDINEDIONES AND ANALOGUES AND THEIR USE AS PPAR-GAMMA ACTIVATORS” (Galderma Research & Development, S.N.C., priority 2001, dated 2003).

Columns and labels:
[1] = target: T1, récepteur chimère Gal-PPARα (Homo sapiens, UniProt Q07869); experiment: Transactivation test, same protocol with chimeric receptor Gal-PPARα; assay type: cell-based; conditions: Hela cells; for activation at 1 µM: 24 h, compound at 1 microM, percent of activation relative to reference agonist (Wy 14643 = 100%), read-out: % d'activation (à 1 microM) PPARα
T1 sequence (Q07869 167-468): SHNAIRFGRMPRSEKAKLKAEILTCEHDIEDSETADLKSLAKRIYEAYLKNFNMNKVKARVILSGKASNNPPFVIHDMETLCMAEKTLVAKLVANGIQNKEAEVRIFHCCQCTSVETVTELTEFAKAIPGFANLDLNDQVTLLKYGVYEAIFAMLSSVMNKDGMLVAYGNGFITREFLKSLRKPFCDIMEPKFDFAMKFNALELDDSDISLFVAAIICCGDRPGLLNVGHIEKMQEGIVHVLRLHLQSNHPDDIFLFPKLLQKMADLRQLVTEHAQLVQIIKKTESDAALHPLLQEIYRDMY
Excerpt: De préférence, l'activateur des récepteurs de type PPARγ est spécifique, c'est à dire qu'il présente un rapport du pourcentage d'activation des récepteurs PPARγ, au pourcentage d'activation des récepteurs PPARα (calculé par rapport à un composé de référence, le Wy 14643, activant les PPARα de 100%) supérieur ou égal à 3. De préférence, ce rapport est supérieur ou égal à 5 et plus avantageusement supérieur ou égal à 10.
(§1) La capacité des molécules à activer et/ou inhiber les récepteurs PPARγ est évaluée à partir de cellules Hela transfectées de manière stable avec le récepteur chimère Gal-PPARγ (LBD).
(§2) Des plaques 96 puits sont ensemencées à raison de 10 000 cellules /100 µl / puit dans du milieu DMEM 10% SDL puis placées 24 heures à 37°C, 7% CO2.
(§3) Pour déterminer l'activité agoniste PPARγ, les cellules sont ensuite traitées par ajout de 5 µl puit des molécules à tester à la concentration finale de 1 µM. Des cellules sont également traitées en parallèle avec un agoniste de référence, l'acide (-)-3-{4-[2-(Benzooxazol-2-yl-methyl-amino)-ethoxy]-phenyl}-2-ethoxy-propionique, 1 µM.
(§4) Après une nouvelle incubation de 24 heures à 37°C, 7% CO2, un dosage de la luciférase est effectué à l'aide du kit « Steady-Glo Luciferase Assay System » de Promega. Le comptage de la luminescence se fait sur un lecteur de microplaque Microbéta Trilux (Wallac).
(§5) L'activité agoniste du produit testé sera exprimée en pourcentage d'activation par rapport au témoin agoniste l'agoniste de référence à 1 µM.
En appliquant ce même protocole avec le récepteur chimère Gal-PPARα, on peut mesurer l'activité agoniste des composés vis à vis des récepteurs PPAR alpha et ainsi la comparer avec celui du récepteur PPARγ.
(§6) L'AC50, exprimée en nM, est déterminée comme la concentration permettant d'obtenir 50% d'activation du signal basal par rapport à l'agoniste de référence.

[2] = target: T2, récepteur chimère Gal-PPARγ (LBD) (Homo sapiens, UniProt P37231); experiment: Transactivation test, Hela cells stably transfected with chimeric receptor Gal-PPARγ (LBD), luciferase readout; assay type: cell-based; conditions: M-HeLa, 24 h, compound at 1 microM, percent of activation relative to reference agonist at 1 µM, read-out: % d'activation (à 1 microM) PPARγ
T2 construct: le récepteur chimère Gal-PPARγ (LBD); Gal (fusion partner); expressed in transfected cells; host or cells: HeLa cells, stably transfected
T2 sequence (P37231 238-503 limits assumed): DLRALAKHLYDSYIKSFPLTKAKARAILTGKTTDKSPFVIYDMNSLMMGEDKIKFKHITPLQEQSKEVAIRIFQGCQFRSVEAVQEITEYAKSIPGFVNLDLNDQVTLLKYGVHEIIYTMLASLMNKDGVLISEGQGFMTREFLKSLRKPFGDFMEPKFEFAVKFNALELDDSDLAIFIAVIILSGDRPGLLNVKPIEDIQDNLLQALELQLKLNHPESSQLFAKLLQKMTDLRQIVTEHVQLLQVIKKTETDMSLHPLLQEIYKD
Procedure: L'activité agoniste vis à vis des récepteurs PPARγ des composés selon l'invention peut être évaluée par des tests de transactivation.
as §1, §2, §3, §4, §5, §6

Compound	activation at 1 µM [1]	activation at 1 µM [2]	AC50 ([1]; concentration giving 50% activation relative to reference agonist, read-out: AC50 (en nM) PPARα)
CN(Cc1cccc(-c2ccc(CC3SC(=O)NC3=O)cc2)c1)C(=O)COc1ccccc1 (centres unmarked) [Composé de l'exemple 7, N-[4'-(2,4-Dioxo-thiazolidin-5-ylmethyl)-biphenyl-3-ylmethyl]-N-methyl-2-phenoxy-acetamide]	37.8%	97.2%	
CCO[C@@H](Cc1ccc(-c2cccc(CN(C)C(=O)CCCCC(=O)c3ccccc3)c2)cc1)C(=O)O [Composé de l'exemple 20, Acide (S)-2-Ethoxy-3-(3'-{[methyl-(6-oxo-6-phenyl-hexanoyl)-amino]-methyl}-biphenyl-4-yl)-propionique]	41.9%	114%	> 50000 nM
